Measurements reported in patent US20070003531A1, “Methods for improving immunotherapy by enhancing survival of antigen-specific cytotoxic T lymphocytes” (University of Connecticut, priority 2005, published 2007).
“Also recorded” adds a separate entry of the source.

Columns and labels:
Type in all cases: cell-based, human
[1] = test system: MART-127-35 tetramer+/CD8+ CTLs; experiment: Survival of antigen specific CTLs five days after secondary encounter of the epitope; conditions: day five in IL-15 after overnight co-culture with cognate epitope; inhibitor 25 μM then washed off
Method: FIG. 13. Survival of the antigen specific CTLs following secondary encounter of the epitope in the presence of anthra[1,9-cd]pyrazol-6(2H)-one (SP600125) and recovery of function in the pyrazoloanthrone rescued CTLs. Effector cells were co-cultured with peptide pulsed T2 cells in the presence or absence of the kinase inhibitors (25 μM). The cultures were washed about 18 h later and then recultured in IL-15 containing medium. On day five, the numbers of the viable antigen specific CTLs were determined. […] The number (11%) of MART-127-35 tetramer^+/CD8^+ population exposed to MART-127-35 peptide pulsed T2 cells (T2/M1) is a reflection of loss of epitope specific CTLs from AICD. […] (B) IFN-γ response by the recovered populations (M3=MAGE-3271-279, M1=MART-127-35).
Finally, the functional status of SP600125 rescued CTLs upon continuous culture was examined. After overnight exposure of the CTLs to the cognate epitope in the presence or absence of SP600125, the CTLs were washed and then maintained in continuous culture in IL-15 containing CM without the inhibitor. Five days after, the number of viable MART-127-35 tetramer positive cells were determined and their function was tested in the IFN-γ response assay. […] Remarkably, the rescued CTLs regained their capacity to synthesize IFN-γ (FIG. 13B).

Mart-1 primary CTLs = experiment: Mitochondrial transmembrane potential (DiOC6 staining); conditions: induced by re-stimulation with cognate peptide; data not shown
Method: FIG. 12. Effect of antigen specific secondary stimulation on mitochondrial transmembrane membrane potential (Δψm), pro- and anti-apoptotic protein and expression of cell surface molecules. (A) Differential effect on membrane polarization in Mart-1 primary CTLs (top panel) vs. Jurkat T cells (bottom panel). CTLs were incubated with T2 cells either alone or loaded with peptide. After overnight secondary exposure cells were stained with Mart-1 tetramer/CD8 and DiOC6. Histogram represents the fluorescence of DiOC6 in the gated antigen specific tetramer^+ population (top panel). Jurkat T cells were also analyzed for modulation of membrane potential after TCR-driven stimulation (bottom panel). Values represent the mean±SD of fluorescence intensity triplicates from one out of three separate experiment. *p<0.001 (One Way ANOVA). […] (C) Expression of different cell surface receptors for survival or death signal in antigen specific population upon secondary stimulation. Values on left upper corner represent the geometric mean of the fluorescence intensity for that particular marker when stimulated with T2/MAGE-3271-279 while that on right upper corner represent the geometric mean of the fluorescence intensity when stimulated with T2/MART-127-35.

[2] = test system: phosphorylated Bim in CTL; experiment: Generation of short phosphorylated Bim fragment in CTL during AICD; conditions: CTLs encountering the MART-1 peptide
Excerpt: FIG. 16. Mitochondrial localization of JNK in the CTL. (A)—Heavy membrane fractions from CTLs in steady state (C), restimulated by the cognate peptide (M1) and control peptide (M3) and the corresponding cytosolic fractions (S-100) were probed for the presence for JNKs. As shown, JNK preferentially localized in the membrane fraction. (B)—The generation of short pBim fragment during AICD and the effect of SP600125 on the generation of this fragment. Mart-1 epitope specific control CTLs (c), and CTLs encountering the cognate peptide (M1), or encountering a control peptide (M3) and encountering the cognate peptide in the presence of SP600125 (SP) or encountering the cognate peptide in the presence of ERK1/2 inhibitor (PD)were probed with an anti-phosphorylated Bim antibody. A phosphorylated short fragment of Bim is generated in the CTLs encountering the MART-1 peptide and this is blocked by SP600125. (C)—Western blot of whole cell lysate of CTLs showing interaction between JNK and VDAC in CTLs (c=control, M1=CTL restimulated by the cognate peptide) Anti-CD8 Ab was used as a control antibody for immunoprecipitation.

SMILES: O=C1c2ccccc2-c2n[nH]c3cccc1c23 [SP600125, anthra[1,9-cd]pyrazol-6(2H)-one]
- fraction of starting epitope specific population recovered [1]: larger fraction
- level of hyper polarization of mitochondrial transmembrane potential (Mart-1 primary CTLs): decreased
- generation/phosphorylation of short phosphorylated Bim fragment [2]: inhibitable; also recorded: blocked
